Assay results from patent US8952024B2, “Herbicidal pyrimidone derivatives” (E I du Pont de Nemours and Company, priority 2009, dated 2015).

Key:
Assay type in all cases: in vivo
corn (Zea mays) = experiment: Test A pre-/postemergence plant response
In short: (§1)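 Both pre- and postemergence treatments are applied simultaneously, using chemicals formulated in a non-phytotoxic solvent mixture with surfactant. Postemergence plants are 2–10 cm high with one to two leaves. After approximately ten days in a greenhouse, injury is scored visually from 0 (none) to 100 (complete control) relative to untreated plants.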

[1] = test system: giant foxtail (Setaria faberii); experiment: Test A pre-/postemergence plant response
In short: as §1

[2] = test system: morningglory (Ipomoea spp.); experiment: Test A pre-/postemergence plant response
In short: as §1

[3] = test system: barnyardgrass (Echinochloa crus-galli); experiment: Test A pre-/postemergence plant response
In short: as §1

[4] = test system: large crabgrass (Digitaria sanguinalis); experiment: Test A pre-/postemergence plant response
In short: as §1

[5] = test system: wheat (Triticum aestivum); experiment: Test A pre-/postemergence plant response
In short: as §1

[6] = test system: pigweed (Amaranthus retroflexus); experiment: Test A pre-/postemergence plant response
In short: as §1

[7] = test system: velvetleaf (Abutilon theophrasti); experiment: Test A pre-/postemergence plant response
In short: as §1

[8] = test system: ducksalad (Heteranthera limosa); experiment: Test B flooded paddy test; details: for Plant response rating, Ducksalad: Flood (flooded paddy test), 13 to 15 days
In short: (§2)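 Each compound is added to standing floodwater (3 cm above soil, maintained) in pots of 2-leaf-stage plants; greenhouse exposure lasts 13–15 d before visual comparison with controls on a 0–100 control scale.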

[9] = test system: umbrella sedge (Cyperus difformis); experiment: Test B flooded paddy test; details: for Plant response rating, Sedge, Umbrella: Flood (flooded paddy test), 13 to 15 days
In short: as §2

[10] = test system: barnyardgrass (Echinochloa crus-galli); experiment: Test B flooded paddy test; details: for Plant response rating, Barnyardgrass: Flood (flooded paddy test), 13 to 15 days
In short: as §2

rice (Oryza sativa) = experiment: Test B flooded paddy test; details: for Plant response rating, Rice: Flood (flooded paddy test), 13 to 15 days
In short: as §2

[11] = Postemergence, 125 g ai/ha, 0 to 100 scale where 0 is no effect and 100 is complete control
[12] = Postemergence, 500 g ai/ha, visual injury, 0 to 100 scale (0 no effect, 100 complete control), approx. ten days
[13] = Preemergence, 125 g ai/ha, 0 to 100 scale where 0 is no effect and 100 is complete control, approximately ten days
[14] = Preemergence, 500 g ai/ha, 0 to 100 scale, 0 = no effect, 100 = complete control
[15] = Postemergence, 125 g ai/ha, visual injury, 0 to 100 scale (0 no effect, 100 complete control), approx. ten days
[16] = 250 g ai/ha, flooded paddy test, visual rating on 0 to 100 scale (0 no effect, 100 complete control) after 13 to 15 days
[17] = 62 g ai/ha, scale of 0 to 100 where 0 is no effect and 100 is complete control
[18] = 125 g ai/ha, scale 0 to 100, 0 is no effect, 100 is complete control
[19] = Flood, 31 g ai/ha, scale 0 to 100 (0 no effect, 100 complete control)

O=C(C1=C(O)C2CCC(C2)C1=O)c1cnc(-c2ccccc2)n(C2CCCCC2)c1=O (stereo not drawn) [Compound 248]
20: Plant response rating, Corn (corn (Zea mays); [14]) | Plant response rating, Foxtail, Giant [1, 14] | Plant response rating, Wheat [5, 14] | Plant response rating, Velvetleaf [7, 13]
80: Crabgrass, Large plant response rating [4, 12] | Plant response rating, Pigweed [6, 15] | Plant response rating, Ducksalad [8, 17] | Plant response rating, Ducksalad [8, 18]
65: Plant response rating, Sedge, Umbrella [9, 17]
0: Plant response rating, Corn (corn (Zea mays); [11]) | Plant response rating, Corn (corn (Zea mays); [13]) | Plant response rating, Morningglory [2, 13] | Plant response rating, Barnyardgrass [3, 13] | Plant response rating, Wheat [5, 15] | Wheat plant response rating [5, 12] | Plant response rating, Wheat [5, 13] | Plant response rating, Pigweed [6, 13] | Plant response rating, Barnyardgrass [10, 17] | Plant response rating, Barnyardgrass [10, 18] | Barnyardgrass plant response rating [10, 19] | Plant response rating, Flood, Rice (rice (Oryza sativa); [16]) | Plant response rating, Rice (rice (Oryza sativa); [17]) | Plant response rating, Rice (rice (Oryza sativa); [18]) | Rice plant response rating (rice (Oryza sativa); [19])
40: Plant response rating, Morningglory [2, 14] | Plant response rating, Pigweed [6, 14] | Plant response rating, Flood, Barnyardgrass [10, 16]
50: Plant response rating, Foxtail, Giant [1, 15] | Plant response rating, Crabgrass, Large [4, 11] | Sedge, Umbrella plant response rating [9, 19]
85: Plant response rating, Flood, Sedge, Umbrella [9, 16]
75: Ducksalad plant response rating [8, 19] | Plant response rating, Sedge, Umbrella [9, 18]
60: Plant response rating, Velvetleaf [7, 14]
90: Plant response rating, Barnyardgrass [3, 11] | Pigweed plant response rating [6, 12] | Plant response rating, Flood, Ducksalad [8, 16]
10: Plant response rating, Foxtail, Giant [1, 13] | Plant response rating, Crabgrass, Large [4, 13]
70: Plant response rating, Crabgrass, Large [4, 14]
100: Foxtail, Giant plant response rating [1, 12] | Plant response rating, Morningglory [2, 15] | Morningglory plant response rating [2, 12] | Barnyardgrass plant response rating [3, 12] | Plant response rating, Velvetleaf [7, 15] | Velvetleaf plant response rating [7, 12]
30: Corn plant response rating (corn (Zea mays); [12]) | Plant response rating, Barnyardgrass [3, 14]
